Where two headings read alike, the source gives them in different places.

Data set [1] relates to HBV. Nature of the data set: Cell culture assay for anti-HBV activity (2.2.15 cells, HBV DNA in medium by Southern blot). Format: cell-based, Hepatitis B virus. To be noted: for EC50: Hepatitis B virus. An excerpt:
We follow the protocol described by Korba and Gerin(Antiviral Res., 1992, 19:55) and Pai et al. (Antimicrobial Agents Chemother., 1996, 40:380) which is used widely in the field. The HepG 2 2.2.15 cells contain a stably integrated HBV genome, the transcript from which serves as a template for viral replication. The cells produce virions which are elaborated into the medium. The production of the virion DNA is monitored by analysis of medium by Southern blotting. Drugs which inhibit viral replication reduce the levels of virion DNA in the medium, relative to controls.
Confluent cells in 24 well tissue culture dishes are treated with test compounds starting at 1 nM and extending logarithmically to 10 μM (1 nM, 3.2, 10 nM, 32, 100 nM, 1 μM, 10 μM […]). Medium is changed […] every 3 days and DNA extracted from the 3, 6, and […] day samples. The virions are concentrated by polyethylene glycol precipitation (equal volume addition of PEG 8000). After cooling on ice the samples are spun and the pellets treated with SDS and Proteinase K followed by Phenol:Chloroform extraction and ethanol precipitation of the DNA. The DNA is analyzed for HBV sequences by Southern hybridization. The probe used for the analysis is a ^32P labeled Eco RI fragment from the HBV clone described by Korba et al. 3TC is used as a positive control compound with known activity against HBV.
System: The most widely used system for the study of anti-HBV agents is the hepatoma cell culture system with the HBV genome. These cells are designated as the 2.2.15 cells, AD38 cells and AD79 cells. The 2.2.15 cells were generated by the transfection of the human hepatoma cells—HepG2 with HBV DNA. (Sells, et al., Proc. Natl. Acad. Sci. USA 84:1005–1009, 1987) HBV viral replication takes place in these cells. The HBV replication can be monitored intracellularly as well as extracellularly in these cells.
Assay for Anti-HBV agents: 2.215 cells are grown in multi-well dishes in RPMI medium supplemented with 4% fetal bovine serum. After 3 to 4 days of growing the cells, they are treated with varying concentrations of the test compound(s). The test compounds are dissolved in DMSO or sterile water. Cultures without the addition of the test compounds serve as controls. The addition of the test compound(s) is repeated at 3-day intervals. The medium is changed and replaced with appropriate concentration of the test compound. At the end of the 9-day treatment period, the culture medium is harvested and processed for viral DNA. The viral DNA thus obtained is analyzed by Southern blot analysis. After the Southern transfer, the blot is subjected to hybridization to an HBV specific probe to detect HBV DNA. The hybriodization is carried out overnight. After the hybridization, free probe is removed by washing of the blots. The specific hybridization is visualized by autoradiography. Inhibition produced by the test compound is calculated with reference to the levels of HBV DNA in the control samples.

The subject of data set [2] is HIV-1. As to the kind of experiment: Anti-HIV evaluation in human PBM cells. Format: cell-based. As to conditions: for EC50: Human immunodeficiency virus 1, PBMC, HIV-1. An excerpt:
(§1) Human PBM cells from healthy donors, seronegative for HIV-1 and HBV, are isolated by a single-step Ficoll-Hypaque discontinuous gradient centrifugation and propagated as described previously (Schinazi et al., Antimicrobial Agents Chemother., 1990, 34:1061; 1992, 36:2423; 1993, 37:875). Compounds are screened for activity against HIV-1 and cytotoxicity by a protocol reported previously reported by Schinazi, et al. The prototype strain of HIV-1LAI obtained from the Centers for Disease Control and Prevention, Atlanta, Ga., is used as the standard virus for the studies in human PBM cells.

A short description of data set [3]: Cytotoxicity in PBM cells. As to conditions: human. Format: cell-based, human. On the procedure:
(§2) We also perform toxicity assays by measuring the inhibition of uptake of […] dye by treated cells. These assays are done in 96 well plates. After the standard 10 day treatment regimen medium is removed and PBS containing MTS dye added to each well. After a 2 hour incubation the absorbance of the metabolized product is measured at 490 nm.
as §1

A short description of data set [4]: Cytotoxicity in CEM cells. Format: cell-based. As to conditions: human. As for the experimental part:
as §2

A short description of data set [5]: Cytotoxicity in Vero cells. In kind it is cell-based. To be noted: African green monkey. As for the experimental part:
as §2

Regarding `Cc1cn(C2CC(CO)=NO2)c(=O)[nH]c1=O` (centres unmarked) [Compound 28 (Series 2)], the EC50 in data set [1] (read-out: Anti-HBV EC50) is above 10 µM; in data set [2] it was above 100 µM. Also, the IC50 in data set [3] is above 100 µM. In addition, the IC50 at 10 day in data set [4] and in data set [5] was above 100 µM throughout.

In the case of `CCCCN(O)C1C(CO)OC(n2cc(C)c(=O)[nH]c2=O)C1F` (centres unmarked) [Compound 71 (Series 2)], the EC50 was below 10 µM in data set [1] (read-out: Anti-HBV EC50) and 81.4 µM in data set [2]. Besides, the “Antiviral activity (in words)” value in data set [1] (virus not named) is on record as “moderate activities”. For the same compound, in data set [3], the 50% inhibitory concentration (IC50) amounted to 13 µM. Also, the IC50 at 10 day is 30.1 µM in data set [4] and 68.5 µM in data set [5].

As for `CNC1C(CO)OC(n2cc(C)c(=O)[nH]c2=O)C1F` (centres unmarked) [Compound 68 (Series 2)], the EC50 in data set [1] (read-out: Anti-HBV EC50) is above 10 µM; in data set [2] it was above 100 µM. Further, the IC50 in data set [3] was above 100 µM. Besides, the IC50 at 10 day in data set [4] and in data set [5] was above 100 µM each time.

As for `Cc1cn(C2OC(CO)C(CO)C2F)c(=O)nc1N` (centres unmarked) [Compound 2 (Series 2)], the EC50 in data set [1] (read-out: Anti-HBV EC50) is above 10 µM; in data set [2] it was above 100 µM. Moreover, in data set [3], the IC50 is above 100 µM. This compound yielded an IC50 at 10 day in data set [5] above 100 µM.

In the case of `CCOP(=O)(CCC1=NOC(n2cc(C)c(=O)[nH]c2=O)C1)OCC` (centres unmarked) [Compound 33 (Series 2)], the EC50 in data set [1] (read-out: Anti-HBV EC50 (μM)) is above 10 µM; in data set [2], above 100 µM. This compound also registered an IC50 in data set [3] above 100 µM. The IC50 at 10 day in data set [4] and in data set [5] was above 100 µM throughout.

Take `Cc1cn(C2CC(CO)N(C)O2)c(=O)[nH]c1=O` (centres unmarked) [Compound 6 (Series 2)]: the EC50 in data set [1] (read-out: Anti-HBV EC50) was above 10 µM; in data set [2], above 100 µM. The IC50 in data set [3] is above 100 µM. The IC50 at 10 day in data set [4] and in data set [5] was above 100 µM each time.

As for `Cc1cn(C2OC(CO)C(CO)C2F)c(=O)[nH]c1=O` (centres unmarked) [Compound 1 (Series 2)], the EC50 is above 10 µM in data set [1] (read-out: Anti-HBV EC50) and above 100 µM in data set [2]. This compound displayed an IC50 in data set [3] above 100 µM.

Regarding `CNC1C(CO)OC(n2ccc(=O)[nH]c2=O)C1F` (centres unmarked) [Compound 69 (Series 2)], the 50% effective concentration (EC50) in data set [1] (read-out: Anti-HBV EC50) was above 10 µM; in data set [2] it was above 100 µM. The half-inhibitory concentration (IC50) in data set [3] was above 100 µM. The IC50 at 10 day in data set [4] and in data set [5] was above 100 µM in each case.

Regarding `Cc1cn(C2CC3COCC3O2)c(=O)[nH]c1=O` (centres unmarked) [Compound 1 (Series 1)], the concentration for a half-maximal effect (EC50) was above 10 µM in data set [1] (read-out: Anti-HBV EC50) and above 100 µM in data set [2]. In data set [3], this compound returned an IC50 above 100 µM. The IC50 at 10 day in data set [5] is above 100 µM.

For the compound `CN(O)C1C(CO)OC(n2cc(F)c(=O)[nH]c2=O)C1F` (centres unmarked) [Compound 60 (Series 2)], the values for the EC50 in data set [1] (read-out: Anti-HBV EC50) and in data set [2] were above 10 µM and above 100 µM, respectively. The IC50 in data set [3] was above 100 µM. Also, the IC50 at 10 day in data set [4] and in data set [5] was above 100 µM throughout.

`CNC1C(CO)OC(n2ccc(N)nc2=O)C1F` (centres unmarked) [Compound 70 (Series 2)]: the “Inhibition of HBV replication (in words)” value in data set [1] is “potent inhibitors”. For the same compound, the results for the EC50 in data set [1] (read-out: Anti-HBV EC50) and in data set [2] were at most 10 µM and 2.4 µM, respectively. In data set [2], the “Inhibition of HIV replication (in words)” value is on record as “potent inhibitors”. This compound returned an IC50 in data set [3] above 100 µM. The figures for the half-maximal inhibitory concentration (IC50) at 10 day in data set [4] and in data set [5] were 109 µM and above 100 µM, respectively.

As to `Cc1cn(C2CC(CCl)C(CO)O2)c(=O)[nH]c1=O` (centres unmarked) [Compound 3 (Series 1)], the half-maximal effective concentration (EC50) in data set [1] (read-out: Anti-HBV EC50) is above 10 µM; in data set [2], above 100 µM. In addition, the IC50 in data set [3] was above 100 µM. For the same compound, the IC50 at 10 day in data set [5] is above 100 µM.

For the compound `Cc1cn(C2CC(CI)C(CO)O2)c(=O)[nH]c1=O` (centres unmarked) [Compound 5 (Series 1)], the EC50 in data set [1] (read-out: Anti-HBV EC50) was above 10 µM; in data set [2], above 100 µM. The IC50 in data set [3] was above 100 µM. This compound also gave an IC50 at 10 day in data set [5] above 100 µM.

As for `CC1=CC(C2CC(CO)N(C)O2)C(=O)NC1=O` (centres unmarked) [Compound 5 (Series 2)], the half-maximal effective concentration (EC50) in data set [1] (read-out: Anti-HBV EC50) was above 10 µM; in data set [2] it was above 100 µM. The compound also returned an IC50 in data set [3] above 100 µM.

The term EC50 denotes the midpoint of the concentration-response curve. What is called IC50 is the concentration that gives 50% inhibition.

Source of the values: patent US7094770B2, “3′-or 2′-hydroxymethyl substituted nucleoside derivatives for treatment of hepatitis virus infections” (Pharmasset, Ltd., priority 2000, dated 2006).
